From US8574563B2 (Bristol-Myers Squibb Company, priority 2006, dated 2013) come the findings set out here.

This experiment has as its system HCV 1b-377-neo replicon cells. In words: HCV replicon assay, HCV 1b-377-neo replicon cells (1b FRET). Type of experiment: cell-based, Hepatitis C virus genotype 1b. Conditions: Hepatitis C virus, HCV 1b-377-neo replicon cells; HCV 1b genotype; read-out: EC50 range against HCV 1b (Table 2, Range). In short, it runs like this:
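Compounds tested in HCV genotype 1b-377-neo replicon cells with a FRET read-out. Cells resistant to a reference NS5A inhibitor through a Y2065H NS5A mutation were run alongside wild-type cells.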
A general note: In antiviral work, replicon cells carry a viral genome segment that copies itself.

For `O=C(CCN1CCCCC1)N1CCC[C@H]1c1ncc(-c2ccc(-c3ccc(-c4cnc([C@@H]5CCCN5C(=O)[C@@H](c5ccccc5)N5CCCCC5)[nH]4)cc3)cc2)[nH]1` [Example 107-7, 1-(3-oxo-3-((2S)-2-(5-(4′-(2-((2S)-1-((2R)-2-phenyl-2-(1-piperidinyl)acetyl)-2-pyrrolidinyl)-1H-imidazol-5-yl)-4-biphenylyl)-1H-imidazol-2-yl)-1-pyrrolidinyl)propyl)piperidine], the EC50 (usually the concentration at which the effect is half-maximal) lay within 0.001 to 0.999 nM.

On to `COc1ccccc1OCC(=O)N1CCC[C@H]1c1ncc(-c2ccc(-c3ccc(-c4cnc([C@@H]5CCCN5C(=O)[C@@H](c5ccccc5)N5CCCCC5)[nH]4)cc3)cc2)[nH]1` [Example 107-8, 1-((1R)-2-((2S)-2-(5-(4′-(2-((2S)-1-((2-methoxyphenoxy)acetyl)-2-pyrrolidinyl)-1H-imidazol-5-yl)-4-biphenylyl)-1H-imidazol-2-yl)-1-pyrrolidinyl)-2-oxo-1-phenylethyl) piperidine], for which the EC50 lay within 0.001 to 0.999 nM.

Regarding `CC(C)(C)OC(=O)N1CCC(C(=O)N2CCC[C@H]2c2ncc(-c3ccc(-c4ccc(-c5cnc([C@@H]6CCCN6C(=O)[C@@H](c6ccccc6)N6CCCCC6)[nH]5)cc4)cc3)[nH]2)CC1` [Example 107-9, tert-butyl 4-(((2S)-2-(5-(4′-(2-((2S)-1-((2R)-2-phenyl-2-(1-piperidinyl)acetyl)-2-pyrrolidinyl)-1H-imidazol-5-yl)-4-biphenylyl)-1H-imidazol-2-yl)-1-pyrrolidinyl)carbonyl)-1-piperidinecarboxylate], the EC50 fell in the range of 0.001 to 0.999 nM.

Take `O=C(c1ccc(N2CCOCC2)cc1)N1CCC[C@H]1c1ncc(-c2ccc(-c3ccc(-c4cnc([C@@H]5CCCN5C(=O)[C@@H](c5ccccc5)N5CCCCC5)[nH]4)cc3)cc2)[nH]1` [Example 107-10, 4-(4-(((2S)-2-(5-(4′-(2-((2S)-1-((2R)-2-phenyl-2-(1-piperidinyl)acetyl)-2-pyrrolidinyl)-1H-imidazol-5-yl)-4-biphenylyl)-1H-imidazol-2-yl)-1-pyrrolidinyl)carbonyl)phenyl) morpholine]: the EC50 lay in the range of 0.001 to 0.999 nM.

On to `O=C(c1cscn1)N1CCC[C@H]1c1ncc(-c2ccc(-c3ccc(-c4cnc([C@@H]5CCCN5C(=O)[C@@H](c5ccccc5)N5CCCCC5)[nH]4)cc3)cc2)[nH]1` [Example 107-11, 1-((1R)-2-oxo-1-phenyl-2-((2S)-2-(5-(4′-(2-((2S)-1-(1,3-thiazo1-4-ylcarbonyl)-2-pyrrolidinyl)-1H-imidazol-5-yl)-4-biphenylyl)-1H-imidazol-2-yl)-1-pyrrolidinyl)ethyl)piperidine], for which the EC50 was in the range of 0.001 to 0.999 nM.

On to `CC(C)(C)OC(=O)N1CC(C(=O)N2CCC[C@H]2c2ncc(-c3ccc(-c4ccc(-c5cnc([C@@H]6CCCN6C(=O)[C@@H](c6ccccc6)N6CCCCC6)[nH]5)cc4)cc3)[nH]2)C1` [Example 107-12, tert-butyl 3-(((2S)-2-(5-(4′-(2-((2S)-1-((2R)-2-phenyl-2-(1-piperidinyl)acetyl)-2-pyrrolidinyl)-1H-imidazol-5-yl)-4-biphenylyl)-1H-imidazol-2-yl)-1-pyrrolidinyl)carbonyl)-1-azetidinecarboxylate], for which the EC50 was 0.001 to 0.999 nM.

In the case of `CC(C)(C)OC(=O)N[C@H]1CC[C@@H](C(=O)N2CCC[C@H]2c2ncc(-c3ccc(-c4ccc(-c5cnc([C@@H]6CCCN6C(=O)[C@@H](c6ccccc6)N6CCCCC6)[nH]5)cc4)cc3)[nH]2)CC1` [Example 107-13, tert-butyl (cis-4-(((2S)-2-(5-(4′-(2-((2S)-1-((2R)-2-phenyl-2-(1-piperidinyl)acetyl)-2-pyrrolidinyl)-1H-imidazol-5-yl)-4-biphenylyl)-1H-imidazol-2-yl)-1-pyrrolidinyl)carbonyl)cyclohexyl) carbamate], the EC50 fell in the range of 0.001 to 0.999 nM.

Take `CC(C)(C)OC(=O)N1CCC(C)(C(=O)N2CCC[C@H]2c2ncc(-c3ccc(-c4ccc(-c5cnc([C@@H]6CCCN6C(=O)[C@@H](c6ccccc6)N6CCCCC6)[nH]5)cc4)cc3)[nH]2)CC1` [Example 107-14, tert-butyl 4-methyl-4-(((2S)-2-(5-(4′-(2-((2S)-1-((2R)-2-phenyl-2-(1-piperidinyl)acetyl)-2-pyrrolidinyl)-1H-imidazol-5-yl)-4-biphenylyl)-1H-imidazol-2-yl)-1-pyrrolidinyl)carbonyl)-1-piperidinecarboxylate]: the EC50 fell in the range of 0.001 to 0.999 nM.

In the case of `O=C([C@@H](c1ccccc1)N1CCCCC1)N1CCC[C@H]1c1ncc(-c2ccc(-c3ccc(-c4cnc([C@@H]5CCCN5C(=O)C5(C(F)(F)F)CC5)[nH]4)cc3)cc2)[nH]1` [Example 107-15, 1-((1R)-2-oxo-1-phenyl-2-((2S)-2-(5-(4′-(2-((2S)-1-((1-(trifluoromethyl)cyclopropyl)carbonyl)-2-pyrrolidinyl)-1H-imidazol-5-yl)-4-biphenylyl)-1H-imidazol-2-yl)-1-pyrrolidinyl)ethyl)piperidine], the EC50 lay in the range of 0.001 to 0.999 nM.

Consider `Cc1cc(CC(=O)N2CCC[C@H]2c2ncc(-c3ccc(-c4ccc(-c5cnc([C@@H]6CCCN6C(=O)[C@@H](c6ccccc6)N6CCCCC6)[nH]5)cc4)cc3)[nH]2)n[nH]1` [Example 107-16, 1-((1R)-2-((2S)-2-(5-(4′-(2-((2S)-1-((5-methyl-1H-pyrazo1-3-yl)acetyl)-2-pyrrolidinyl)-1H-imidazol-5-yl)-4-biphenylyl)-1H-imidazol-2-yl)-1-pyrrolidinyl)-2-oxo-1-phenylethyl) piperidine], for which the concentration for a half-maximal effect (EC50) fell in the range of 0.001 to 0.999 nM.

In the case of `O=C([C@@H]1CCN(Cc2ccccc2)C1)N1CCC[C@H]1c1ncc(-c2ccc(-c3ccc(-c4cnc([C@@H]5CCCN5C(=O)[C@@H](c5ccccc5)N5CCCCC5)[nH]4)cc3)cc2)[nH]1` [Example 107-17], the EC50 was 0.001 to 0.999 nM.

For `O=C([C@H]1CCN(Cc2ccccc2)C1)N1CCC[C@H]1c1ncc(-c2ccc(-c3ccc(-c4cnc([C@@H]5CCCN5C(=O)[C@@H](c5ccccc5)N5CCCCC5)[nH]4)cc3)cc2)[nH]1` [Example 107-18, 1-((1R)-2-((2S)-2-(5-(4′-(2-((2S)-1-(((3S)-1-benzyl-3-pyrrolidinyl)carbonyl)-2-pyrrolidinyl)-1H-imidazol-5-yl)-4-biphenylyl)-1H-imidazol-2-yl)-1-pyrrolidinyl)-2-oxo-1-phenylethyl) piperidine], the EC50 fell in the range of 0.001 to 0.999 nM.

For the compound `CO[C@@H](C(=O)N1CCC[C@H]1c1ncc(-c2ccc(-c3ccc(-c4cnc([C@@H]5CCCN5C(=O)[C@@H](c5ccccc5)N5CCCCC5)[nH]4)cc3)cc2)[nH]1)c1ccccc1` [Example 107-19, 1-((1R)-2-((2S)-2-(5-(4′-(2-((2S)-1-((2R)-2-methoxy-2-phenylacetyl)-2-pyrrolidinyl)-1H-imidazol-5-yl)-4-biphenylyl)-1H-imidazol-2-yl)-1-pyrrolidinyl)-2-oxo-1-phenylethyl) piperidine], the concentration giving a half-maximal response (EC50) lay within 0.001 to 0.999 nM.

As to `CO[C@H](C(=O)N1CCC[C@H]1c1ncc(-c2ccc(-c3ccc(-c4cnc([C@@H]5CCCN5C(=O)[C@@H](c5ccccc5)N5CCCCC5)[nH]4)cc3)cc2)[nH]1)c1ccccc1` [Example 107-20, 1-((1R)-2-((2S)-2-(5-(4′-(2-((2S)-1-((2S)-2-methoxy-2-phenylacetyl)-2-pyrrolidinyl)-1H-imidazol-5-yl)-4-biphenylyl)-1H-imidazol-2-yl)-1-pyrrolidinyl)-2-oxo-1-phenylethyl) piperidine], the EC50 lay within 0.001 to 0.999 nM.
